Reference: patent publication US20250109156A1, “INDOLE-CONTAINING MACROCYCLIC COMPOUNDS AND USES THEREOF” (JIANGSU AOSAIKANG PHARMACEUTICAL CO., LTD., priority 2022, published 2025)

Legend:
CDK9-CyclinT1 = CDK9-CyclinT1 (Homo sapiens (Human), UniProt P50750); assay: In vitro CDK9-CyclinT1 enzyme activity assay (TR-FRET); assay type: biochemical; conditions: Ulight-4E-BP1 peptide, 25° C. 120 minutes
Experimental: Experimental Example 3: In Vitro CDK9/[…] Enzyme Activity Assay
CDK9-CyclinT1 was purchased from CARNA. Ulight-4E-BP1 peptide, Eu-anti-phospho-tyrosine antibody, and 1× detection buffer were purchased from PerkinElmer. High-purity ATP was purchased from Promega. EDTA was purchased from Sigma. Nivo multimode microplate reader (PerkinElmer).
Preparation of kinase buffer: the kinase buffer containing 50 mM HEPES, 1 mM EDTA, 10 mM MgCl2, 0.01% Brij-35, pH 7.4.
2.38 g of HEPES, 58 mg of EDTA, 406 mg of MgCl2, and 20 mg of Brij-35 were added to 200 mL of buffer, and the pH was adjusted to 7.4.
100 μL of 1 M EDTA stock solution was mixed with 0.625 μL of 1× detection buffer and 1725 μL of distilled water to prepare the stop solution.
Enzyme, Ulight-4E-BP1 peptide, ATP, and inhibitors were diluted with the kinase buffer.
The Eu-anti-phospho-tyrosine antibody was diluted to a concentration of 8 nM/L using detection buffer.
The compounds to be tested were 4-fold diluted with a multi-channel pipette to the 8th concentration, i.e., from 400 μM to 24.4 nM, with a final DMSO concentration of 4%. The experiment was set up in duplicate wells. 2.5 μL of each concentration gradient of the inhibitor was added to the microplate, followed by 5 μL of CDK9-CyclinT1 enzyme (2 ng), and 2.5 μL of a mixture of substrate and ATP (8 mM ATP, 50 nM Ulight-4E-BP1 peptide). At this point, the final concentration gradient of the compound was 100 μM diluted to 6.1 nM. The reaction system was reacted at 25° C. for 120 minutes. After the reaction, 5 μL of stop solution was added to each well, and the reaction was continued at 25° C. for 5 minutes. After stopping the reaction, 5 μL of Eu-anti-phospho-tyrosine antibody dilution was added to each well, and the mixture was reacted at 25° C. for 60 minutes. Data were then collected using the PerkinElmer Nivo multimode microplate reader in TR-FRET mode (excitation wavelength: 320 nm, emission wavelength: 665 nm).
Using the equation (Sample−Min)/(Max−Min)*100% to convert the raw data into inhibition rate, the IC50 value may be obtained by curve fitting with four parameters (obtained by “log (inhibitor) vs. response—Variable slope” mode in GraphPad Prism). Table 1 provides the CDK9-CyclinT1 enzymatic inhibitory activity of the compounds of the present disclosure.

HCC70 cells = assay: In vitro HCC70 cell activity assay (CellTiter-Glo proliferation); assay type: cell-based; conditions: Homo sapiens, 96 h, 4 days incubation
Experimental: Experimental Example 4: In Vitro HCC70 Cell Activity Assay
1640 culture medium, fetal bovine serum, penicillin/streptomycin antibiotics were purchased from WISENT. CellTiter-Glo (cell viability chemiluminescence detection reagent) reagent was purchased from Promega. HCC70 cell line was purchased from Nanjing Cobioer Biosciences Co. Ltd. Nivo multimode microplate reader (PerkinElmer).
The HCC70 cells were seeded in a white 96-well plate, with 80 μL of cell suspension per well, containing 6000 HCC70 cells each. The cell plate was incubated overnight in a CO2 incubator. The compounds to be tested were 3-fold diluted with a multi-channel pipette to the 8th concentration, i.e., diluted from 2 mM to […], and the experiment was set up in duplicate wells. 78 μL of culture medium was added to an intermediate plate, and then 2 μL of gradient diluted compound per well was transferred to the intermediate plate according to the corresponding position. After mixing well, the compound was transferred to the cell plate at 20 μL per well. The concentration of the compound transferred to the cell plate ranged from 10 μM to 1.52 nM. The cell plate was incubated in a CO2 incubator for 4 days. Another cell plate was prepared to measure the signal on the day of drug addition as the maximum value (denoted as Max in the equation below) for data analysis. 25 μL of cell viability chemiluminescence detection reagent was added to each well of this cell plate, and incubated at room temperature for 10 minutes to stabilize the luminescent signal. A multimode microplate reader was used for reading.
25 μL of cell viability chemiluminescence detection reagent was added to each well of this cell plate, and incubated at room temperature for 10 minutes to stabilize the luminescent signal. A multimode microplate reader was used for reading.
Using the equation (Sample−Min)/(Max−Min)*100% to convert the raw data into inhibition rate, the IC50 value may be obtained by curve fitting with four parameters (obtained by “log (inhibitor) vs. response—Variable slope” mode in GraphPad Prism). Table 1 provides the inhibitory activity of the compounds of the present disclosure on the proliferation of HCC70 cells.

[1] = system: HCC70 breast cancer xenograft (CDX); assay: In vivo efficacy study, HCC70 breast cancer CDX model; set-up: species or system BALB/c nude mice; conditions: for Animal tolerance: BALB/c nude mice, HCC70 CDX
Experimental: Experimental Example 6: In Vivo Efficacy Study
In vivo efficacy experiments were conducted on BALB/c nude mice subcutaneously implanted with human tumor cell line-based xenograft (CDX) derived from HCC70 breast cancer patients.
BALB/c nude mice, female, 6 to 8 weeks old, weighing approximately 19 to 23 g, were maintained in a special pathogen-free environment in individual ventilated cages (6 mice per cage). All cages, bedding, and water were disinfected before use. All animals had free access to a standard certified commercial laboratory diet. A total of 36 mice, purchased from the Laboratory Animal Department of the Shanghai Institute of Planned Parenthood Research (formerly Shanghai SIPPR-BK), were used for the study. Each mouse was injected with 10×10^6 HCC70 cells on the right side of the neck, with an injection volume of 0.2 mL, and the cell suspension was in a 1:1 ratio of PBS and Matrigel. When the average tumor volume reached approximately 179 mm^3, random grouping was performed, and dosing was initiated.
Tumor volume was measured twice a week with a two-dimensional caliper, and the volume was measured in mm^3 and calculated by the following equation: V=0.5 a×b^2, where a and b are the long and short diameters of the tumor, respectively.

CDK9-CyclinT1, sequence (P50750 whole entry): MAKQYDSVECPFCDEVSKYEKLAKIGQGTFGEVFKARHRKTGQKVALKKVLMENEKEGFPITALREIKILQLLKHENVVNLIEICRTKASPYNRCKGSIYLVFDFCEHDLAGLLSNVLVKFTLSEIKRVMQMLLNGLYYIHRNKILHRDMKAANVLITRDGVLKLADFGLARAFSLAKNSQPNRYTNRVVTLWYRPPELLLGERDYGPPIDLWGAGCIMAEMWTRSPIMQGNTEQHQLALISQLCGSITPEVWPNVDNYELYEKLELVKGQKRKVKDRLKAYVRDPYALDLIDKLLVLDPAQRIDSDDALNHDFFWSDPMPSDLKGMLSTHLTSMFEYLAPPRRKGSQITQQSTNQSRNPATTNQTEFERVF
CDK9-CyclinT1, sequence (O60563 whole entry partner): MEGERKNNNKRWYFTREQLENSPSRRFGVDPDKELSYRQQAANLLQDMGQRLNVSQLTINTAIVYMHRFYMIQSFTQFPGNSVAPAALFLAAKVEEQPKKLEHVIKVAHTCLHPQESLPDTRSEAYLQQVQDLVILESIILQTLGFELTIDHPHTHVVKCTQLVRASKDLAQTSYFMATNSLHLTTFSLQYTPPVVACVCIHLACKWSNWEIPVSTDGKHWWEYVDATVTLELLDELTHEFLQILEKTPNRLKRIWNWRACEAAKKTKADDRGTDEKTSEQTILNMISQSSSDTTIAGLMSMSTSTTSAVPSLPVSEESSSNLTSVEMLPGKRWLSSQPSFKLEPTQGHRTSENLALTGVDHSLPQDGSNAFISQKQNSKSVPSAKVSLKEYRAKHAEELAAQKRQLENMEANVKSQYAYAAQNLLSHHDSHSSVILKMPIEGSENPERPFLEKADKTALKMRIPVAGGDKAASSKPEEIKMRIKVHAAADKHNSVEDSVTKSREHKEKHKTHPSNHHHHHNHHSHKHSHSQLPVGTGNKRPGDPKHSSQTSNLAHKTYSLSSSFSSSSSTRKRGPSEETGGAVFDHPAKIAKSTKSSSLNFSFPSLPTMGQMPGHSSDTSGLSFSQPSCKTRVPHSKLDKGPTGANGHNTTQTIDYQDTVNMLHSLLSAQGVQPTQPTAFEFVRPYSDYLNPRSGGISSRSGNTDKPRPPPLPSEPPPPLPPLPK

| Compound | IC50 (CDK9-CyclinT1) [nM] | IC50 (HCC70 cells) [nM] | Animal tolerance ([1]; dose 1.5 mg/kg) | Tumor volume Day 0 ([1]; dose 1.5 mg/kg) [mm^3] | Tumor volume Day 7 ([1]; dose 1.5 mg/kg) [mm^3] | Tumor volume Day 14 ([1]; dose 1.5 mg/kg) [mm^3] | Tumor volume Day 21 ([1]; dose 1.5 mg/kg) [mm^3] | Animal tolerance ([1]; dose 3 mg/kg) | Tumor volume Day 0 ([1]; dose 3 mg/kg) [mm^3] | Tumor volume Day 7 ([1]; dose 3 mg/kg) [mm^3] | Tumor volume Day 14 ([1]; dose 3 mg/kg) [mm^3] | Tumor volume Day 21 ([1]; dose 3 mg/kg) [mm^3] |
| --- | --- | --- | --- | --- | --- | --- | --- | --- | --- | --- | --- | --- |
| CN1CCCCN2CCC[C@@H](C2)Nc2ncc(C(F)(F)F)c(n2)-c2c[nH]c3c(P(C)(C)=O)c(ccc23)C1=O [Formate of compound 1] | 723 | < 1.5 | Good | 179 | 273 | 178 | 105 | – | – | – | – | – |
| CN1CCCCN2CCCC[C@@H](C2)Nc2ncc(C(F)(F)F)c(n2)-c2c[nH]c3c(P(C)(C)=O)c(ccc23)C1=O [Compound 3] | > 1000 | 1.4 | – | – | – | – | – | – | – | – | – | – |
| CP(C)(=O)c1c2ccc3c(c[nH]c13)-c1nc(ncc1C(F)(F)F)N[C@H]1CCCN(CCCCCCO2)C1 [Compound 4] | > 1000 | 0.6 | – | – | – | – | – | – | – | – | – | – |
| CP(C)(=O)c1c2ccc3c(c[nH]c13)-c1nc(ncc1C(F)(F)F)N[C@H]1CCCCN(CCCCNC2=O)C1 [Compound 6] | > 1000 | 1.8 | – | – | – | – | – | Good | 179 | 272 | 344 | 403 |
| CP(C)(=O)c1c2ccc3c(c[nH]c13)-c1nc(ncc1C(F)(F)F)N[C@H]1CCCN(CCCCNC2=O)C1 [Compound 5] | > 1000 | 1 | – | – | – | – | – | Good | 179 | 260 | 305 | 230 |
